Data: US20240239813A1, “KRAS INHIBITORS AND PHARMACEUTICAL USES THEREOF” (RISEN (SUZHOU) PHARMA TECH CO., LTD., priority 2022, published 2024)
pIC50: −log10 of the molar value.

target: His-tagged Human KRAS^G12D (Homo sapiens (Human), UniProt P01116, G12D); test: HTRF KRAS G12D GTP binding assay; settings: displacement of GTP-Red tracer
Procedure: KRAS^G12D was used in this assay.
The ability of a test compound to bind to KRAS^G12D was measured by using an HTRF KRAS^G12D GTP Binding Kit (Cisbio, 63ADK000CB27PEG). […] 5 μL of compound solution was added to each well after serial dilution, followed by addition of 5 μL of GDP (50 nM) solution. After 30 minutes incubation at room temperature, 1×6His Eu cryptate antibody solution and GTP-Red tracer were added to the plate, then incubated for another 30 minutes. The HTRF signal was measured with a VICTOR Nivo multimode plate reader according to the manufacturer's instructions. The percent inhibition was calculated using the following formula: […]
(where the “Maximum Signal” are wells containing DMSO without inhibitor; the “Minimum Signal” are wells containing reference inhibitory component (GDP); the “Test compound signal” are wells containing test compound (inhibitor) at established concentrations).
IC50 was determined by fitting percent inhibition at each inhibitor concentration to the four-parameter nonlinear logistic equation using GraphPad Prism.

Sequence of His-tagged Human KRAS^G12D (P01116-2 other isoform, or with tags, fused parts or gaps G12D): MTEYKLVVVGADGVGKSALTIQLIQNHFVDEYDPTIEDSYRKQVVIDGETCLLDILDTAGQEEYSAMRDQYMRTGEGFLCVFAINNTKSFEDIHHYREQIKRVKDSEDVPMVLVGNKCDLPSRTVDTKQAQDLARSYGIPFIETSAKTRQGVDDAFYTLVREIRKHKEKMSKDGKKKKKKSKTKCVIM

Compared with `CCc1c(F)ccc2cc(O)cc(-c3ncc4c(N5CCCC6(CCN6)C5)nc(OC[C@@]56CCCN5C[C@H](F)C6)nc4c3F)c12` (stereo partly drawn) [Compound 4a], `CCc1c(F)ccc2cc(O)cc(-c3ncc4c(N5CCC6(CCOC6)C5)nc(OC[C@@]56CCCN5C[C@H](F)C6)nc4c3F)c12` (stereo partly drawn) [Compound 1a] is higher in pIC50: < 6.00 for the first, 6.12 for the second. The second is the more potent here.

First: CCc1c(F)ccc2cc(O)cc(-c3ncc4c(N5CCCC(OC)CC5)nc(OCC5(CN(C)C)CC5)nc4c3F)c12 (stereo not drawn) [Compound 40a]
Second: CCc1c(F)ccc2cc(O)cc(-c3ncc4c(N5CCCCC(OC)C5)nc(OCC5(CN(C)C)CC5)nc4c3F)c12 (stereo not drawn) [Compound 45a]
The pIC50 of the first is higher: 6.37 for the first, < 6.00 for the second. The first is the more potent here.

Going from `CCc1c(F)ccc2cc(O)cc(-c3ncc4c(N(C)CC(C)(C)O)nc(OCC5(CN(C)C)CC5)nc4c3F)c12` [Compound 32a] to `CCc1c(F)ccc2cc(O)cc(-c3ncc4c(N5CCCC(O)CC5)nc(OCC5(CN(C)C)CC5)nc4c3F)c12` (stereo not drawn) [Compound 44a], the pIC50 rises from 6.32 to 6.63 (0.31 log units).

Compared with `CCc1c(F)ccc2cc(O)cc(-c3ncc4c(N5[C@H](CO)C[C@H]6C[C@H]65)nc(OC[C@@]56CCCN5C[C@H](F)C6)nc4c3F)c12` [Compound 57], `CCc1c(F)ccc2cc(O)cc(-c3ncc4c(N5C[C@H](N)C[C@H]5CO)nc(OC[C@@]56CCCN5C[C@H](F)C6)nc4c3F)c12` [Compound 55] is lower in pIC50: 6.29 for the first, < 6.00 for the second.

Going from `CCc1c(F)ccc2cc(O)cc(-c3ncc4c(N5CCCC6(CCO6)C5)nc(OC[C@H](C)OC)nc4c3F)c12` (stereo partly drawn) [Compound 11a] to `CCc1c(F)ccc2cc(O)cc(-c3ncc4c(N5CCC[C@]6(CCO6)C5)nc(OCC5(N(C)C)CC5)nc4c3F)c12` [Compound 37a], the pIC50 rises from < 6.00 to 6.92.

`CCc1c(F)ccc2cc(O)cc(-c3ncc4c(N5CCC6(CCO6)CC5)nc(OC[C@@]56CCCN5C[C@H](F)C6)nc4c3F)c12` [Compound 60] and `CCc1c(F)ccc2cc(O)cc(-c3ncc4c(N5CCC(C)(O)C5)nc(OC[C@@]56CCCN5C[C@H](F)C6)nc4c3F)c12` (stereo partly drawn) [Compound 16] cannot be ordered by pIC50: < 6.00 for the first, < 6.00 for the second.

`CCc1c(F)ccc2cc(O)cc(-c3ncc4c(N5CCC[C@]6(CCO6)C5)nc(OCC5(CN6CC(F)(F)C6)CC5)nc4c3F)c12` [Compound 28a] and `CCc1c(F)ccc2cc(O)cc(-c3ncc4c(N5CCCC6(CCO6)C5)nc(OC[C@@H]5C[C@@H](F)CN5C)nc4c3F)c12` (stereo partly drawn) [Compound 3a] are within 0.2 log units of each other in pIC50: 6.80 for the first, 6.85 for the second.

Going from `CCc1c(F)ccc2cc(O)cc(-c3ncc4c(N5CC[C@@H](C(C)(C)O)C5)nc(OC[C@@]56CCCN5C[C@H](F)C6)nc4c3F)c12` [Compound 29] to `CCc1c(F)ccc2cc(O)cc(-c3ncc4c(N5CCCC[C@@H](N)C5)nc(OC[C@@]56CCCN5C[C@H](F)C6)nc4c3F)c12` [Compound 38], the pIC50 rises from < 5.00 to 6.79. The second is the more potent here.

`CCc1c(F)ccc2cc(O)cc(-c3ncc4c(N5C[C@H]6C[C@@H]5C(=O)N6)nc(OC[C@@]56CCCN5C[C@H](F)C6)nc4c3F)c12` [Compound 46] and `CCc1c(F)ccc2cc(O)cc(-c3ncc4c(N5C[C@@H](N)C[C@H]5CO)nc(OC[C@@]56CCCN5C[C@H](F)C6)nc4c3F)c12` [Compound 33] cannot be ordered by pIC50: < 6.00 for the first, < 6.00 for the second.

`CCc1c(F)ccc2cc(O)cc(-c3ncc4c(N5CCC(C)(CO)C5)nc(OC[C@@]56CCCN5C[C@H](F)C6)nc4c3F)c12` (stereo partly drawn) [Compound 56] and `CCc1c(F)ccc2cc(O)cc(-c3ncc4c(N5CCCC56COC6)nc(OC[C@@]56CCCN5C[C@H](F)C6)nc4c3F)c12` [Compound 14] cannot be ordered by pIC50: < 6.00 for the first, < 6.00 for the second.

`CCc1c(F)ccc2cc(O)cc(-c3ncc4c(N5CCC[C@H]5CN5CCCC5)nc(OC[C@@]56CCCN5C[C@H](F)C6)nc4c3F)c12` [Compound 30] and `CCc1c(F)ccc2cc(O)cc(-c3ncc4c(N5C[C@@H]6C[C@@H](O)[C@H]5C6)nc(OC[C@@]56CCCN5C[C@H](F)C6)nc4c3F)c12` [Compound 27] cannot be ordered by pIC50: < 5.00 for the first, < 5.00 for the second.

`CN(C)CC1(COc2nc(N3CCC[C@]4(CCO4)C3)c3cnc(-c4ccc(F)c5sc(N)c(C#N)c45)c(F)c3n2)CC1` [Compound 35a] and `CN(C)CC1(COc2nc(N3CCC[C@]4(CCO4)C3)c3cc(Cl)c(-c4ccc(F)c5sc(N)c(C#N)c45)c(F)c3n2)CC1` [Compound 39a] cannot be ordered by pIC50: < 6.00 for the first, < 6.00 for the second.
